Results: paper PMC12430830, “Discovery of a Novel Cyclopeptide as Tyrosinase Inhibitor for Skin Lightening” (Skin Research and Technology, 2025)
Where “and” joins values, the source holds several entries; their conditions need not be identical. Equal entries are not always repeated. Where two headings read alike, the source gives them in different places.

Assays:
[1] = test system: human melanocyte cells; assay: MTT cytotoxicity / growth inhibition in human melanocytes; format: cell-based; conditions: 24 h, n = 3
Method: (§1) Human melanocytes (Batch number: MC210817; Guangdong Biocell Biotechnology Co. Ltd.) were cultured in DMEM/F12 medium supplemented with 20% FBS (Hyclone) and 100 U/mL penicillin at 37°C with 5% CO2 atmosphere.
For cytotoxicity, evaluation of peptides on human melanocyte cells was assessed using the standard MTT assay. Cells were seeded in 96‐well plates at a density of 10 000 cells per well and incubated for 12 h under standard culture conditions. […] A negative control group (culture medium containing 10% Dimethyl sulfoxide (DMSO), v/v) was included. Post‐treatment, 0.5 mg/mL MTT reagent was added to each well, followed by 4 h of incubation at 37°C. Formazan crystals formed in viable cells were dissolved in 150 µL DMSO, and absorbance was measured at 490 nm using a Synergy multimode reader (BioTek, USA). Each concentration was tested in triplicate. Statistical significance was determined via one‐way ANOVA (GraphPad Prism 5). All experiments were conducted in triplicate (n = 3).

[2] = test system: human melanocyte cells; assay: Melanin content in melanocytes; format: cell-based; conditions: n = 3
Method: as §1
Upon reaching 80%–90% confluence, human melanocyte cells were dissolved with 0.25% trypsin to create a single‐cell suspension. Then, the cells were seeded in 6‐well plates at 200 000 cells per well and cultured for 12 h in a 37°C humidified incubator (5% CO2, V/V). When the confluence of cells reached 40%–60%, they were incubated with specific peptides or the positive control for 24 h. Following the incubation period, the supernatant was removed and the adherent cells were washed with PBS before being dispersed using trypsin (700 µL/well, 0.25%). The dispersed cells were collected and centrifuged at 10 000 rpm for 10 min. The cell pellet from each well was then treated with a mixture of distilled water (200 µL), anhydrous ethanol (500 µL), and ether (500 µL). The mixture was vortexed and allowed to stand at room temperature for 20 min, followed by centrifugation at 3000 rpm for 5 min. The precipitate was dissolved in 1 mL of 1 M NaOH containing 10% DMSO, then incubated at 80°C in a water bath for 40 minutes. After incubation, the solution was transferred to a 96‐well culture plate for optical density measurement at 405 nm. Each analysis was performed in triplicate and results were expressed as mean ± standard deviation (SD).

[3] = test system: tyrosinase; assay: Tyrosinase inhibition assay (intracellular tyrosinase, lysate of treated melanocytes, L‐DOPA); format: cell-based, human; conditions: cells treated 24 h, 475 nm, n = 3
Method: The inhibition of tyrosinase activity was assessed according to the reported method. The 6‐well plates were incubated at 37°C with human melanocyte cells at a density of 2.5×10^5 cells per well in a humidified atmosphere (5% CO2) for 24 h. Subsequently, these cells were exposed to glabridin (0.00625%, V/V) as the positive control, along with other tested compounds. Following treatment, cells were incubated at 37°C for 24 h using identical conditions. After treatment, cells in each well were rinsed with a PBS buffer solution (500 µL) and lysed with a lysate buffer (100 µL containing 0.5% sodium deoxycholate) at approximately 0°C for 1 h. The resulting cell lysate was then centrifuged at 12 000 rpm at 4°C for 20 min. The protein concentration in the supernatant was quantified by a BCA Assay Kit (Beyotime Biotechnology, China). Samples were transferred to a 96‐well plate in a total volume of 100 µL ([…] of lysate supernatant and 20 µL of 0.1% L‐DOPA) and incubated for 60 min at 37°C. The absorbance was measured at 475 nm using a Synergy multimode reader (BioTek Corporation, USA).

[4] = test system: human melanocyte cells; conditions: traditional skin‐lightening agent, at similar concentrations; general statement, no reference given; cited from earlier work

Cyclo(Gln‐Gly‐Pro‐Gln‐Gly‐Pro) (head to tail) [CHP‐9]
cell viability ([1]; CHP‐9 across effective concentrations): > 90% | cytotoxicity ([1]; at tested concentrations (0.0781–10 mg/mL)): noncytotoxic to human melanocytes | inhibitory effect on melanin production compared with glabridin ([2]; CHP‐9 1% versus glabridin 0.00625% v/v): comparable to glabridin | melanin content after treatment ([2]; CHP‐9 1%, 24 h, OD 405 nm, mean ± SD, untreated control 30.90 ± 1.13 µg/mL): ~23.51 µg/mL and 23.51 ± 1.14 µg/mL | tyrosinase inhibition rate ([3]; CHP‐9 1%, lysate with 0.1% L‐DOPA 60 min 37°C): 28.57%

NC[C@H]1CC[C@H](C(=O)O)CC1 [tranexamic acid]
change in cell viability ([1]; tranexamic acid at higher concentrations (5 and 10 mg/mL), not statistically significant): A slight reduction in cell viability | melanin reduction, single compounds ([2]; tranexamic acid 2.5 mg/mL, nonapeptide‐1 0.3% v/v, 24 h): melanin‐reducing effects, though not as strongly as CHP‐9 alone | tyrosinase inhibition rate ([3]; tranexamic acid 2.5 mg/mL, L‐DOPA 60 min 37°C): 10.71%

CC1(C)C=Cc2c(ccc3c2OC[C@@H](c2ccc(O)cc2O)C3)O1 [glabridin]
inhibition of melanin production ([2]; glabridin 0.00625% v/v, 24 h): strong inhibitory effect on melanin production | tyrosinase inhibition rate ([3]; glabridin 0.00625% v/v (positive control), L‐DOPA 60 min 37°C): approximately 14%

Oc1ccc(O)cc1 [hydroquinone]
cytotoxicity [4]: exhibit cytotoxic effects
